Laboratory results: patent US11077100B2, “Tetrahydroquinoline derivatives as P2X7 receptor antagonists” (RaQualia Pharma Inc., priority 2017, dated 2021)

Key:
human P2X7 = human P2X7 (Homo sapiens (Human), UniProt Q99572); test: Human P2X7 functional assay (Ca2+ influx, Fluo-4, FDSS); assay type: cell-based; conditions: antagonistic activity with respect to the human P2X7 receptor; BzATP final concentration 80 microM
Summary of the method: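 Ca2+ influx was triggered with BzATP (80 μM final) after a 10-min room-temperature compound preincubation and monitored with Fluo-4 (ex 480/em 540 nm) on FDSS. The cells were HEK293 stably carrying FLAG-tagged human P2X7. Duplicate-averaged 7-point dose-responses gave IC50s.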

rat P2X7 = rat P2X7 (Rattus norvegicus (Rat), UniProt Q64663); test: Rat P2X7 functional assay (Ca2+ influx, Fluo-4, FDSS); assay type: cell-based; conditions: HEK293 cells stably expressing rat P2X7; BzATP final 10 microM; 7-point dose-response; read-out: Antagonistic activities with respect to the rat P2X7 receptor (IC50)
Sequence of rat P2X7 (Q64663 whole entry): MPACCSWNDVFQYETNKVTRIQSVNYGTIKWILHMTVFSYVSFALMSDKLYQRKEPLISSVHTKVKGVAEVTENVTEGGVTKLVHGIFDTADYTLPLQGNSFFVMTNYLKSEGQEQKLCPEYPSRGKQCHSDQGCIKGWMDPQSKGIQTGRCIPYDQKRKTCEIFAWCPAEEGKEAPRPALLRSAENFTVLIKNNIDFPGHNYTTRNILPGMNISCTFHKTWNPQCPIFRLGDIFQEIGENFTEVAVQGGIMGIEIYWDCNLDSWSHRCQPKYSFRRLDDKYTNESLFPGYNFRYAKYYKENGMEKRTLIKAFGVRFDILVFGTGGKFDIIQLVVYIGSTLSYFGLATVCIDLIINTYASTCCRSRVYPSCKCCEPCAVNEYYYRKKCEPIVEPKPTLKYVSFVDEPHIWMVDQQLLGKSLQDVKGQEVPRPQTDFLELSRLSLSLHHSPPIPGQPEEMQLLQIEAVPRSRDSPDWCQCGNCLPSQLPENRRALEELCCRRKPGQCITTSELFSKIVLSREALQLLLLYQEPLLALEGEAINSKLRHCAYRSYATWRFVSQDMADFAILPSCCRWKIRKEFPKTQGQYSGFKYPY
Method: Rat P2X7 Functional Assay
The functional activity of compounds was determined by measuring changes in intracellular calcium concentration using a Ca^2+-sensitive fluorescent dye, Fluo-4 (Molecular Probes). The changes in fluorescent signal were monitored by the cell imaging technology by Hamamatsu Photonics's Functional Drug Screening System (FDSS). Increases in intracellular Ca^2+ concentration were readily detected upon activation with BzATP.
HEK293 cells stably expressing rat P2X7 (GenBank accession number NM_019256) were grown in Corning CellBIND cell culture flasks, in a 5% CO2 humidified incubator to about 80% confluence. Media composition consisted of Dulbecco's Modified Eagle Medium (high glucose), 10% fetal bovine serum ([…]), 100 units/[…] Penicillin, 100 microg/mL Streptomycin and 250 microg/mL Geneticine.
1. […] Plate-out HEK293-rat P2X7 cells (40 microL medium containing 5,000 cells per well) into poly-D-lysine coated 384-well plates (BD Falcon) at 24 h prior to assay.
2. Incubate at 37° C. in 5% CO2.
3. Incubate the plate at 37° C. in 5% CO2 for 1 h.
5. Test compounds were prepared at 100× the test concentration in DMSO by serial dilution with Biomek-FX liquid handling instrument. 33× diluted compound solutions in assay buffer were prepared in intermediate compound plate with Biomek-NX liquid handling instrument. A further 3× dilution occurred in below steps 6 and 7.
6. Add 20 microL of 33× diluted compound solutions into each well and leave the plate for 10 min under the dark at room temperature.
7. Measure activity by FDSS as follows: • Set the assay plate on the stacker of FDSS. • Start the detection of fluorescence intensity at 540 nm by 480 nm exicitation. • After 30 seconds, add 20 microL of assay buffer containing 30 microM BzATP (final 10 microM).
IC50 values for compounds of the present invention were determined from 7-point dose-response studies. Curves were generated using the average of duplicate wells for each data point. Finally, the IC50 values are calculated with the best-fit dose curve determined by XLfit (ID Business Solutions Ltd.).

Sequence of human P2X7 (Q99572 whole entry): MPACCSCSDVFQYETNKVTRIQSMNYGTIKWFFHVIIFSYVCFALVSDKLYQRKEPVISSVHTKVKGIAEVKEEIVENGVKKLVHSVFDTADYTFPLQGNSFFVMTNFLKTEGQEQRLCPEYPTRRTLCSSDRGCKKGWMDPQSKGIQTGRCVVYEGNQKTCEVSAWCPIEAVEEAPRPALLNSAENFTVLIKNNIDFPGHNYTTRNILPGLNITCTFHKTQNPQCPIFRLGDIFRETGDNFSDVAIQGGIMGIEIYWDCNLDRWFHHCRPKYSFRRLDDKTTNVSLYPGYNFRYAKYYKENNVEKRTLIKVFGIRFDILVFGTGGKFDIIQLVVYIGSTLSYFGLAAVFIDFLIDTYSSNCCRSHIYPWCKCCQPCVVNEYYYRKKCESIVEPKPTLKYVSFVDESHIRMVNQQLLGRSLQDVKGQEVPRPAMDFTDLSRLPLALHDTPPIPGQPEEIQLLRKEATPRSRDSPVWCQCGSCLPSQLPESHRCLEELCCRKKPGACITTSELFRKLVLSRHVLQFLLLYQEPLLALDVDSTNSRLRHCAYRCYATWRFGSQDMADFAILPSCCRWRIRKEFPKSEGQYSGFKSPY

Compound | IC50 (human P2X7) [nM] | IC50 (rat P2X7) [nM]
O=C(NCC1(c2ccc(Cl)cc2Cl)CCOCC1)[C@]1(F)CC[C@H](O)c2ncccc21 [Example 240, (5S,8S)-N-((4-(2,4-dichlorophenyl)tetrahydro-2H-pyran-4-yl)methyl)-5-fluoro-8-hydroxy-5,6,7,8-tetrahydroquinoline-5-carboxamide] | 301 to 1000 | < 1000
O=C(NCc1cccc(F)c1Cl)[C@]1(F)CC[C@H](O)c2ncccc21 [Example 169, (5S,8S)-N-(2-chloro-3-fluorobenzyl)-5-fluoro-8-hydroxy-5,6,7,8-tetrahydroquinoline-5-carboxamide] | < 50 | < 1000
O=C(NCc1cccc(Cl)c1Cl)C1(F)CCC(O)(CO)c2ncccc21 (stereo not drawn) [Example 36, N-(2,3-dichlorobenzyl)-5-fluoro-8-hy-droxy-8-(hydroxymethyl)-5,6,7,8-tetra-hydroquinoline-5-carboxamide] | < 50 | < 1000
O=C(NCc1ccc(F)cc1Cl)[C@]1(F)CC[C@H](OCCO)c2ncccc21 [Example 344, (5S,8S)-N-(2-chloro-4-fluorobenzyl)-5-fluoro-8-(2-hydroxyethoxy)-5,6,7,8-tetrahydroquinoline-5-carboxamide] | < 50 | < 1000
O=C(NCc1ccc(F)c(F)c1F)[C@]1(F)CC[C@@H](O)c2ncccc21 [Example 108, (5S,8R)-5-fluoro-8-hydroxy-N-(2,3,4-trifluorobenzyl)-5,6,7,8-tetrahydroquinoline-5-carboxamide] | 301 to 1000 | < 1000
O=C(NCC(c1ccc(Cl)cc1)N1CCC(F)(F)CC1)[C@]1(F)CC[C@H](O)c2ncccc21 (stereo partly drawn) [Example 232, (5S,8S)-N-(2-(4-chlorophenyl)-2-(4,4-difluoropiperidin-1-yl)ethyl)-5-fluoro-8-hydroxy-5,6,7,8-tetrahydroquinoline-5-carboxamide] | < 50 | < 1000
N#CC[C@]1(O)CC[C@@](F)(C(=O)NCc2ccc(F)cc2Cl)c2cccnc21 [Example 281, (5S,8R)-N-(2-chloro-4-fluorobenzyl)-8-(cyanomethyl)-5-fluoro-8-hydroxy-5,6,7,8-tetrahydroquinoline-5-carboxamide] | 301 to 1000 | < 1000
O=C(NC1COc2cc(Cl)cc(Cl)c21)[C@]1(F)CC[C@H](O)c2ncccc21 (stereo partly drawn) [Example 229, (5S,8S)-N-(4,6-dichloro-2,3-dihydrobenzofuran-3-yl)-5-fluoro-8-hydroxy-5,6,7,8-tetrahydroquinoline-5-carboxamide] | < 50 | < 1000
Cc1cc(Cl)cc(Cl)c1CNC(=O)[C@]1(F)CC[C@@H](O)c2ncccc21 [Example 100, (5S,8R)-N-(2,4-dichloro-6-methylbenzyl)-5-fluoro-8-hydroxy-5,6,7,8-tetrahydroquinoline-5-carboxamide] | < 50 | < 1000
O=C(NCc1c(F)cc(Cl)cc1Cl)[C@]1(F)CC[C@@H](O)c2ncccc21 [Example 117, (5S,8R)-N-(2,4-dichloro-6-fluorobenzyl)-5-fluoro-8-hydroxy-5,6,7,8-tetrahydroquinoline-5-carboxamide] | < 50 | < 1000
O=C(NCc1ccc(Cl)cc1Cl)[C@@]1(F)CC[C@@H](O)c2ncccc21 [Example 132, (5R,8R)-N-(2,4-dichlorobenzyl)-5-fluoro-8-hydroxy-5,6,7,8-tetrahydroquinoline-5-carboxamide] | < 50 | < 1000
O=C(NCc1ccc(F)c(Cl)c1Cl)[C@]1(F)CC[C@@](O)(CO)c2ncccc21 [Example 320, (5S,8S)-N-(2,3-dichloro-4-fluorobenzyl)-5-fluoro-8-hydroxy-8-(hydroxymethyl)-5,6,7,8-tetrahydroquinoline-5-carboxamide] | < 50 | < 1000
O=C(NCc1ccccc1Cl)[C@]1(F)CC[C@H](O)c2ncccc21 [Example 195, (5S,8S)-N-(2-chlorobenzyl)-5-fluoro-8-hydroxy-5,6,7,8-tetrahydroquinoline-5-carboxamide] | < 50 | < 1000
C[C@@]1(O)CC[C@@](F)(C(=O)NCc2ccc(F)cc2Cl)c2cccnc21 [Example 260, (5S,8R)-N-(2-chloro-4-fluorobenzyl)-5-fluoro-8-hydroxy-8-methyl-5,6,7,8-tetrahydroquinoline-5-carboxamide] | 301 to 1000 | < 1000
O=C(NCc1cccc(C(F)(F)F)c1Cl)C1CC(O)c2ncccc21 (stereo not drawn) [Example 27, N-(2-chloro-3-(trifluoro-methyl)benzyl)-7-hydroxy-6,7-dihydro-5H-cyclopenta[b] pyridine-5-carboxamide] | < 50 | < 1000
O=C(NCc1cccc(F)c1C(F)(F)F)[C@]1(F)CC[C@H](O)c2ncccc21 [Example 178, (58,8S)-5-fluoro-N-(3-fluoro-2-(trifluoromethyl)benzyl)-8-hydroxy-5,6,7,8-tetrahydroquinoline-5-carboxamide] | < 50 | < 1000
O=C(NCc1ccc(Cl)cc1Cl)[C@]1(F)CC[C@H](O)c2ncc(F)cc21 [Example 241, (5S,8S)-N-(2,4-dichlorobenzyl)-3,5-difluoro-8-hydroxy-5,6,7,8-tetrahydroquinoline-5-carboxamide] | < 50 | < 1000
O=C(NCc1c(Cl)cc(F)cc1CO)[C@]1(F)CC[C@H](O)c2ncccc21 [Example 150, (5S,8S)-N-(2-chloro-4-fluoro-6-(hydroxymethyl)benzyl)-5-fluoro-8-hydroxy-5,6,7,8-tetrahydroquinoline-5-carboxamide] | < 50 | < 1000
COC[C@]1(O)CC[C@@](F)(C(=O)NCc2ccc(F)cc2Cl)c2cccnc21 (relative stereo) [Example 42, (5S*,8S*)-N-(2-chloro-4-fluoro-benzyl)-5-fluoro-8-hydroxy-8-(methoxymethyl)-5,6,7,8-tetra-hydroquinoline-5-carboxamide] | < 50 | < 1000
O=C(NCc1c(Cl)cc(Cl)cc1CO)[C@]1(F)CC[C@@H](O)c2ncccc21 [Example 104] | < 50 | < 1000
O=C(NCC1(N2CCOCC2)CCCCC1)[C@]1(F)CC[C@H](O)c2ncccc21 [Example 192, (5S,8S)-5-fluoro-8-hydroxy-N-((1-morpholinocyclohexyl)methyl)-5,6,7,8-tetrahydroquinoline-5-carboxamide] | < 50 | < 1000
N#CC[C@]1(O)CC[C@@](F)(C(=O)NCc2c(Cl)cc(Cl)cc2CO)c2cccnc21 [Example 283] | < 50 | < 1000
O=C(NCc1ccc(Cl)cc1Cl)[C@@H]1CC[C@H](O)c2ncccc21 [Example 66, (5R,8S)-N-(2,4-dichloro-benzyl)-8-hydroxy-5,6,7,8-tetrahydroquinoline-5-carboxamide] | < 50 | < 1000
CNCC1(O)CCC(F)(C(=O)NCc2cccc(C(F)(F)F)c2Cl)c2cccnc21 (stereo not drawn) [Example 49, N-(2-chloro-3-(trifluorometh-yl)benzyl)-5-fluoro-8-hydroxy-8-((methylamino)meth-yl)-5,6,7,8-tetrahydroquinoline-5-carboxamide] | < 50 | < 1000
O=C1CC[C@](F)(C(=O)NCc2cccc(C(F)(F)F)c2Cl)c2cccnc21 [Example 246, (R)-N-(2-chloro-3-(trifluoromethyl)benzyl)-5-fluoro-8-oxo-5,6,7,8-tetrahydroquinoline-5-carboxamide] | < 50 | < 1000
O=C(NCc1ccc(F)cc1Cl)[C@@H]1CC[C@@H](O)c2ncccc21 [Example 89, (5R,8R)-N-(2-chloro-4-fluorobenzyl)-8-hydroxy-5,6,7,8-tetrahydroquinoline-5-carboxamide] | 101 to 300 | < 1000
C[C@]1(O)CC[C@@](F)(C(=O)NCC2(N3CCOCC3)CCCCC2)c2cccnc21 [Example 274, (5S,8S)-5-fluoro-8-hydroxy-8-methyl-N-((1-morpholinocyclohexyl)methyl)-5,6,7,8-tetrahydroquinoline-5-carboxamide] | < 50 | < 1000
